ChEMBL document CHEMBL3045631, “Anticandidiasis agents from a Tanzanian plant, Combretum zeyheri” (2013)
In brackets after ≈: the same amount, converted by molar mass.

What was measured:
Assay type in all cases: functional
Candida albicans [1] = test: Antifungal activity against Candida albicans clinical isolate by two-fold serial microdilution method
Candida albicans [2] = test: Antifungal activity against Candida albicans ATCC 90028 by two-fold serial microdilution method
Candida albicans [3] = test: Antifungal activity against Candida albicans MTCC 1637 by two-fold serial microdilution method

**Q.** For `CC1(C)CC[C@]2(C(=O)O)CC[C@]3(C)C(=CC[C@@H]4[C@@]5(C)C[C@@H](O)[C@H](O)C(C)(C)[C@@H]5[C@H](O)C[C@]43C)[C@@H]2C1` [6-beta-hydroxymaslinic acid], which MIC (Candida albicans [1]) is on record?
**A.** Its MIC is greater than 250 µg/mL.

**Q.** And the MIC (Candida albicans [2])?
**A.** Its MIC is greater than 250 µg/mL.

**Q.** What about the MIC (Candida albicans [3]) of the same compound?
**A.** The MIC was greater than 250 µg/mL.

**Q.** What does the source list for `C[C@@H]1[C@H](O)[C@@H](C)/C=C/C=C/C=C/C=C/C=C/C=C/C=C/[C@H](O[C@@H]2O[C@H](C)[C@@H](O)[C@H](N)[C@@H]2O)C[C@@H]2O[C@](O)(C[C@@H](O)C[C@@H](O)[C@H](O)CC[C@@H](O)C[C@@H](O)CC(=O)O[C@H]1C)C[C@H](O)[C@H]2C(=O)O` [AMPHOTERICIN B]?
**A.** MIC (Candida albicans [1]): 6.25 µg/mL (≈ 6.76 µM); MIC (Candida albicans [2]): 3.13 µg/mL (≈ 3.39 µM); MIC (Candida albicans [3]): 3.13 µg/mL (≈ 3.39 µM)

**Q.** `CC1(C)CC[C@]2(C(=O)O)CC[C@]3(C)C(=CC[C@@H]4[C@@]5(C)C[C@@H](O)[C@H](O)[C@@](C)(CO)[C@@H]5[C@H](O)C[C@]43C)[C@@H]2C1` [TERMINOLIC ACID] was tested. Which MIC (Candida albicans [1]) did it give?
**A.** Its MIC is 125 µg/mL (≈ 248 µM).

**Q.** And the MIC (Candida albicans [2])?
**A.** The MIC was 62.5 µg/mL (≈ 124 µM).

**Q.** What about the MIC (Candida albicans [3]) of the same compound?
**A.** Its MIC is 125 µg/mL (≈ 248 µM).

**Q.** For `Clc1ccccc1C(c1ccccc1)(c1ccccc1)n1ccnc1` [CLOTRIMAZOLE], which MIC (Candida albicans [1]) is on record?
**A.** Its MIC is 0.39 µg/mL (≈ 1.13 µM).

**Q.** What about the MIC (Candida albicans [2]) of the same compound?
**A.** Its MIC is 0.78 µg/mL (≈ 2.26 µM).

**Q.** What about the MIC (Candida albicans [3]) of the same compound?
**A.** Its MIC is 0.39 µg/mL (≈ 1.13 µM).
